According to the supplement of paper PMC10307832:

Columns and labels:
Experiment in all cases: relative viability (nuclei count vs DMSO), 5 days (fraction); higher = more cells survive
RO-3306 + Luminespib = compound: C1=CC2=C(C=CC(=C2)C=C3C(=O)NC(=NCC4=CC=CS4)S3)N=C1 [RO-3306] + CCNC(=O)c1noc(-c2cc(C(C)C)c(O)cc2O)c1-c1ccc(CN2CCOCC2)cc1 [Luminespib] (partner 0.01 µM)
How it was run: (§1)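 Cells from lung cancer lines were seeded into 1536-well plates and, one day later, dosed by pin tool. Treatments were either a single drug or a fixed dose of an anchor drug with five library-drug doses (not always all listed) in √10 steps. After 5 days, nuclei were stained in a one-step fixation (final 0.05% Triton X-100, 1% formaldehyde, 1 ug/ml Hoechst) and counted on 4× images, and relative viability is the treated-to-vehicle nuclei ratio, as the median of duplicate plates.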

[1] = compound: O=S(=O)(c1ccccc1)N(CC(F)(F)F)c1ccc(C(O)(C(F)(F)F)C(F)(F)F)cc1 + Nc1nc2[nH]cc(CCc3ccc(C(=O)N[C@@H](CCC(=O)O)C(=O)O)cc3)c2c(=O)[nH]1 [Pemetrexed] (partner 0.2 µM)
How it was run: as §1

RO-3306 + Phenformin = compound: C1=CC2=C(C=CC(=C2)C=C3C(=O)NC(=NCC4=CC=CS4)S3)N=C1 [RO-3306] + N=C(N)NC(=N)NCCc1ccccc1 [Phenformin] (partner 250 µM)
How it was run: as §1

[2] = compound: O=S(=O)(c1ccccc1)N(CC(F)(F)F)c1ccc(C(O)(C(F)(F)F)C(F)(F)F)cc1 + N=C(N)NC(=N)NCCc1ccccc1 [Phenformin] (partner 250 µM)
How it was run: as §1

[3] = compound: O=S(=O)(c1ccccc1)N(CC(F)(F)F)c1ccc(C(O)(C(F)(F)F)C(F)(F)F)cc1 + COc1cccc2cc(-c3nc([C@H]4CC[C@H](C(=O)O)CC4)n4ncnc(N)c34)[nH]c12 [OSI-027] (partner 0.5 µM)
How it was run: as §1

For PC-3 [JPC-3], the relative viability (RO-3306 + Luminespib; first compound 0.01 µM) was 0.642, the relative viability (RO-3306 + Luminespib; first compound 0.03162 µM) was 0.638 and the relative viability (RO-3306 + Luminespib; first compound 0.1 µM) was 0.778. For the same cell line, the relative viability (RO-3306 + Luminespib; first compound 0.3162 µM) was 0.667, the relative viability (RO-3306 + Luminespib; first compound 1 µM) was 0.864 and the relative viability ([1]; first compound 2.53 µM) was 1.07. For the same cell line, the relative viability ([1]; first compound 8 µM) was 0.949, the relative viability (RO-3306 + Phenformin; first compound 0.01 µM) was 0.481 and the relative viability (RO-3306 + Phenformin; first compound 0.03162 µM) was 0.517. It also gave a relative viability (RO-3306 + Phenformin; first compound 0.1 µM) of 0.467, a relative viability (RO-3306 + Phenformin; first compound 0.3162 µM) of 0.473 and a relative viability (RO-3306 + Phenformin; first compound 1 µM) of 0.433. For the same cell line, the relative viability ([2]; first compound 0.8 µM) was 0.441, the relative viability ([2]; first compound 2.53 µM) was 0.551 and the relative viability ([2]; first compound 8 µM) was 0.501. For the same cell line, the relative viability ([3]; first compound 0.8 µM) was 0.864, the relative viability ([3]; first compound 2.53 µM) was 0.744 and the relative viability ([3]; first compound 8 µM) was 0.785.

NCI-H1944 showed a relative viability (RO-3306 + Luminespib; first compound 0.01 µM) of 0.83, a relative viability (RO-3306 + Luminespib; first compound 0.03162 µM) of 0.667 and a relative viability (RO-3306 + Luminespib; first compound 0.1 µM) of 0.681. The relative viability (RO-3306 + Luminespib; first compound 0.3162 µM) was 0.62, the relative viability (RO-3306 + Luminespib; first compound 1 µM) was 0.678 and the relative viability ([1]; first compound 0.8 µM) was 0.634. It also gave a relative viability ([1]; first compound 2.53 µM) of 0.589, a relative viability ([1]; first compound 8 µM) of 0.576 and a relative viability (RO-3306 + Phenformin; first compound 0.01 µM) of 0.206. It also gave a relative viability (RO-3306 + Phenformin; first compound 0.03162 µM) of 0.182, a relative viability (RO-3306 + Phenformin; first compound 0.1 µM) of 0.2 and a relative viability (RO-3306 + Phenformin; first compound 0.3162 µM) of 0.168. The relative viability (RO-3306 + Phenformin; first compound 1 µM) was 0.194, the relative viability ([2]; first compound 0.8 µM) was 0.209 and the relative viability ([2]; first compound 2.53 µM) was 0.19. For the same cell line, the relative viability ([2]; first compound 8 µM) was 0.197, the relative viability ([3]; first compound 0.8 µM) was 0.423 and the relative viability ([3]; first compound 2.53 µM) was 0.385. The relative viability ([3]; first compound 8 µM) was 0.401.

HCC-827 showed a relative viability (RO-3306 + Luminespib; first compound 0.01 µM) of 0.502, a relative viability (RO-3306 + Luminespib; first compound 0.03162 µM) of 0.433 and a relative viability (RO-3306 + Luminespib; first compound 0.1 µM) of 0.588. For the same cell line, the relative viability (RO-3306 + Luminespib; first compound 0.3162 µM) was 0.586, the relative viability (RO-3306 + Luminespib; first compound 1 µM) was 0.786 and the relative viability ([1]; first compound 0.8 µM) was 0.266. The relative viability ([1]; first compound 2.53 µM) was 0.246, the relative viability ([1]; first compound 8 µM) was 0.239 and the relative viability (RO-3306 + Phenformin; first compound 0.01 µM) was 0.406. For the same cell line, the relative viability (RO-3306 + Phenformin; first compound 0.03162 µM) was 0.308, the relative viability (RO-3306 + Phenformin; first compound 0.1 µM) was 0.407 and the relative viability (RO-3306 + Phenformin; first compound 0.3162 µM) was 0.381. It also gave a relative viability (RO-3306 + Phenformin; first compound 1 µM) of 0.408, a relative viability ([2]; first compound 0.8 µM) of 0.448 and a relative viability ([2]; first compound 2.53 µM) of 0.411. The relative viability ([2]; first compound 8 µM) was 0.4, the relative viability ([3]; first compound 0.8 µM) was 0.883 and the relative viability ([3]; first compound 2.53 µM) was 0.858. For the same cell line, the relative viability ([3]; first compound 8 µM) was 0.766.

NCI-H1666 showed a relative viability (RO-3306 + Luminespib; first compound 0.01 µM) of 0.929, a relative viability (RO-3306 + Luminespib; first compound 0.03162 µM) of 0.883 and a relative viability (RO-3306 + Luminespib; first compound 0.1 µM) of 1.05. The relative viability (RO-3306 + Luminespib; first compound 0.3162 µM) was 1.05, the relative viability (RO-3306 + Luminespib; first compound 1 µM) was 0.891 and the relative viability ([1]; first compound 0.8 µM) was 0.768. For the same cell line, the relative viability ([1]; first compound 2.53 µM) was 0.818, the relative viability ([1]; first compound 8 µM) was 0.832 and the relative viability (RO-3306 + Phenformin; first compound 0.01 µM) was 0.561. For the same cell line, the relative viability (RO-3306 + Phenformin; first compound 0.03162 µM) was 0.55, the relative viability (RO-3306 + Phenformin; first compound 0.1 µM) was 0.515 and the relative viability (RO-3306 + Phenformin; first compound 0.3162 µM) was 0.54. The relative viability (RO-3306 + Phenformin; first compound 1 µM) was 0.552, the relative viability ([2]; first compound 0.8 µM) was 0.537 and the relative viability ([2]; first compound 2.53 µM) was 0.541. For the same cell line, the relative viability ([2]; first compound 8 µM) was 0.511, the relative viability ([3]; first compound 0.8 µM) was 0.849 and the relative viability ([3]; first compound 2.53 µM) was 0.819. For the same cell line, the relative viability ([3]; first compound 8 µM) was 0.813.

With NCI-H2126 the relative viability (RO-3306 + Luminespib; first compound 0.01 µM) was 0.867, the relative viability (RO-3306 + Luminespib; first compound 0.03162 µM) was 0.858 and the relative viability (RO-3306 + Luminespib; first compound 0.1 µM) was 0.895. It also gave a relative viability (RO-3306 + Luminespib; first compound 0.3162 µM) of 1, a relative viability (RO-3306 + Luminespib; first compound 1 µM) of 0.949 and a relative viability ([1]; first compound 0.8 µM) of 0.82. The relative viability ([1]; first compound 2.53 µM) was 0.743, the relative viability ([1]; first compound 8 µM) was 0.672 and the relative viability (RO-3306 + Phenformin; first compound 0.01 µM) was 0.504. The relative viability (RO-3306 + Phenformin; first compound 0.03162 µM) was 0.544, the relative viability (RO-3306 + Phenformin; first compound 0.1 µM) was 0.513 and the relative viability (RO-3306 + Phenformin; first compound 0.3162 µM) was 0.508. It also gave a relative viability (RO-3306 + Phenformin; first compound 1 µM) of 0.513, a relative viability ([2]; first compound 0.8 µM) of 0.578 and a relative viability ([2]; first compound 2.53 µM) of 0.533. The relative viability ([2]; first compound 8 µM) was 0.518, the relative viability ([3]; first compound 0.8 µM) was 0.819 and the relative viability ([3]; first compound 2.53 µM) was 0.673. The relative viability ([3]; first compound 8 µM) was 0.717.

LXF-289 was tested, and the relative viability (RO-3306 + Luminespib; first compound 0.01 µM) was 0.766, the relative viability (RO-3306 + Luminespib; first compound 0.03162 µM) was 0.654 and the relative viability (RO-3306 + Luminespib; first compound 0.1 µM) was 0.593. The relative viability (RO-3306 + Luminespib; first compound 0.3162 µM) was 0.603, the relative viability (RO-3306 + Luminespib; first compound 1 µM) was 0.577 and the relative viability ([1]; first compound 0.8 µM) was 0.883. The relative viability ([1]; first compound 2.53 µM) was 0.82, the relative viability ([1]; first compound 8 µM) was 0.86 and the relative viability (RO-3306 + Phenformin; first compound 0.01 µM) was 0.52. For the same cell line, the relative viability (RO-3306 + Phenformin; first compound 0.03162 µM) was 0.507, the relative viability (RO-3306 + Phenformin; first compound 0.1 µM) was 0.506 and the relative viability (RO-3306 + Phenformin; first compound 0.3162 µM) was 0.543. For the same cell line, the relative viability (RO-3306 + Phenformin; first compound 1 µM) was 0.428, the relative viability ([2]; first compound 0.8 µM) was 0.504 and the relative viability ([2]; first compound 2.53 µM) was 0.475. It also gave a relative viability ([2]; first compound 8 µM) of 0.463, a relative viability ([3]; first compound 0.8 µM) of 0.877 and a relative viability ([3]; first compound 2.53 µM) of 0.64. The relative viability ([3]; first compound 8 µM) was 0.749.
